The text below walks through data of US4321254A, “Antiallergic imidodisulfamides” (SmithKline Corporation, priority 1980, dated 1982).

Molecules are shown by their SMILES.

The test system of this assay is slow reacting substance of anaphylaxis (SRS-A). The assay can be described thus: Inhibition of SRS-A induced contraction of guinea pig ileum. To be noted: compound concentration 5×10^-6 M, partially purified SRS-A from guinea pig lung, agonist 40 μg/ml, 15 min, 5 µM. The protocol: The SRS-A antagonist activity of the compounds of this invention is measured by the ability of the active medicament to inhibit SRS-A induced contraction of guinea pig ileum. In this test system, sections of ileum are resected from guinea pigs and placed in 5 ml. tissue baths containing a modified Tyrode's solution. One end of the tissue is fixed to a glass tissue holder, the other is connected to a force-displacement transducer and the tissue is placed under a tension of 500 mg. Isometric tissue contractions are recorded on a six channel polygraph. Baths are constantly aerated with 95% O2 -5% CO2. After a 20 minute stabilization period a concentration of the appropriate agonist which provides a contraction height of 60-80% of the maximum obtainable to that agonist (as determined) from full sequential concentration--response curves in separate experiments) is added to the tissue bath and the response recorded. The procedure is repeated until reproducible responses are obtained. […] Percent inhibition produced by the test compound is calculated by substracting the mean percentage change in control tissue from the mean percentage change in tissues exposed to the test compound. Additional compounds are then evaluated as long as the tissue remains reproducibly responsive to the agonist. […]

Consider `O=S(=O)(Nc1ccc2c(c1)CN(S(=O)(=O)NS(=O)(=O)N1CCc3ccc(NS(=O)(=O)c4ccc(Cl)cc4)cc3C1)CC2)c1ccc(Cl)cc1` [Compound 1, N,N'-bis[7-(4-chlorophenylsulfonamide)-1,2,3,4-tetrahydroisoquinolyl]disulfonylimide], for which the “percent antagonism of SRS-A induced contraction” value was 59%.
